{"source": "patent US7229621B2", "about": "“Method to enhance the immunogenicity of an antigen” (Torrey Pines Institute for Molecular Studies, priority 1998, dated 2007)", "key": {"[1]": {"tested_on": "dendritic cells in draining lymph node", "experiment": "Antigen-bearing dendritic cells in lymph nodes after injection of soluble protein or peptide with or without topical migration inducer", "format": "in vivo, mice", "description": "The injections were followed 2 hours later by topical application of dibutyl phthalate and acetone to the abdominal skin. The antigen-bearing dendritic cells that had migrated to the draining lymph node two days later were analyzed as described above and are shown in the upper right quadrant of each dot plot.\nThis was followed 2 hrs later by: A) no further treatment, or B) topical application of dibutyl phthalate and acetone to the abdominal skin. The antigen-bearing dendritic cells that had migrated to the draining lymph node two days later are shown in the upper right quadrant of each dot plot.\nAs stated previously, whether mature antigen-bearing dendritic cells will be encountered by and activate naive T cells in the lymph node is likely to depend not only on the number of antigen-bearing dendritic cells that enter the node, but also on the density of MHC:peptide complexes expressed on their membranes."}, "E.G7-OVA cells": {"tested_on": "E.G7-OVA cells", "details": "endogenous SIINFEKL, reported by Rotzschke et al. and Malarkannan et al.; cited from earlier work"}, "E.G7-OVA tumor cells": {"tested_on": "E.G7-OVA tumor cells", "experiment": "E.G7-OVA tumor growth after immunization with tumor antigen and migration inducer", "format": "in vivo, C57BL/6 mice", "text": "The tumor cell, E.G7-OVA, is the C57BL/6 EL4 thymoma transfected with the complete gene for chicken ovalbumin (OVA). The transfected cell line expresses OVA protein, which is also processed naturally by E.G7-OVA cells into an eight amino acid peptide, OVA257-264, with the sequence […]. […] Based on the positive results using FITC, the inventors followed a similar protocol in an attempt to induce immunity to the E.G7-OVA tumor by topical administration of the well-characterized, synthetic […] tumor-associated peptide.\nC57BL/6 mice were treated as follows: 1) shaving alone; 2) topical administration of acetone and dibutyl phthalate; 3) topical administration of […] (240 μg/ml) in DMSO diluted in PBS, followed in 5 hours by acetone and dibutyl phthalate; and 4) topical administration of […] (240 μg/ml) in acetone and dibutyl phthalate. All mice were subsequently injected subcutaneously with 5×10^5 E.G7-OVA cells (5-times the minimal tumorogenic dose). Tumor-specific immunity was monitored by measuring the size of the developing tumor.\nThe mucous membranes lack the tough barrier posed by the stratum corneum of the skin. […] The EL4 parent tumor cell line, lacking chicken ovalbumin, was used as a negative control; no immunity against the EL4 tumor cells was seen. Thus, the inventors' hypothesis regarding penetration of the stratum corneum was confirmed; the […] peptide was not effectively reaching the immature dendritic cells, known as Langerhans cells, underlying the stratum corneum.\nTo enhance the effectiveness of cutaneous topical administration of peptide, […] was dissolved in DMSO and applied to the skin without further dilution. Dibutyl phthalate in a 50:50 mixture with acetone was applied to the same site 5 hr later. All mice were subsequently injected subcutaneously with 5×10^5 E.G7-OVA cells. The results shown in FIG. 6 indicate that the peptide in concentrated DMSO was apparently able to traverse the stratum corneum, effectively gaining access to the epidermal Langerhans cells. […] Thus, the tumor-specific peptide, […], in concentrated DMSO, penetrated the stratum corneum in sufficient concentration to be incorporated into the MHC class I molecule K^b on epidermal Langerhans cells, and in the presence of the migration inducer, dibutyl phthalate, was effectively presented to CD8+ CTLs in the draining lymph nodes.\nTo confirm the immunogenicity of the disclosed treatment, groups of 10 C57BL/6 mice were injected with 50 μl of 1.25 mM OVA protein in HBSS, with HBSS alone, or with nothing. This was followed an hour later by topical application of DBP in acetone or with nothing. One month later, the mice were inoculated subcutaneously with 5×10^5 EL4 tumor cells or with 5×10^5 E.G7-OVA tumor cells and subsequent tumor growth was measured."}, "[2]": {"tested_on": "dendritic cells in draining inguinal lymph nodes", "experiment": "Antigen-bearing dendritic cells in lymph nodes after ultrasound application of soluble peptide followed by migration inducer", "format": "in vivo, C57BL/6 mice", "description": "FIG. 9 illustrates the effect of delivering a peptide antigen ([…]) into the skin via ultrasound, followed by topical application of dibutyl phthalate and acetone to maximize the induction of dendritic cell migration and maturation. […] (240 μg) in DMSO, or DMSO alone, was applied to the shaved abdominal skin of C57BL/6 mice and covered with a hydrogel, into which was inserted a 13 mm diameter ultrasound transducer. Ultrasound was applied at 20 kHz and 1.6 W/cm^2, in 1 second pulses every 2 seconds for 6 minutes, for a total ultrasound dose of 288 J/cm^2. Two hours later, a 50:50 v/v solution of acetone and dibutyl phthalate was applied topically to the same area. Two days later, the skin draining inguinal lymph nodes were removed and the cells analyzed by immunofluorescent flow cytometry.\nThe antigen-bearing dendritic cells that had migrated to the draining lymph node are shown in the upper right quadrant of each dot plot. The dendritic cells in the lymph node were identified by their characteristic light scatter properties and exceptionally high surface expression of MHC class II (FL1), while the antigenic epitope was detected using the K^b:[…]-specific mAb 25-D1.16 (FL2), as described above.\nAs stated previously, whether mature antigen-bearing dendritic cells will be encountered by and activate naive T cells in the lymph node is likely to depend not only on the number of antigen-bearing dendritic cells that enter the node, but also on the density of MHC:peptide complexes expressed on their membranes. To estimate the density of peptide:MHC complexes on the immigrant dendritic cells generated by this procedure, we compared the fluorescence intensity of various cell populations detected by the peptide:MHC-specific mAb, 25-D1.16, using identical staining conditions and flow cytometer settings. The results are shown in Table IV, providing the number of specific peptide:MHC complexes expressed on the plasma membrane of dendritic cells after various treatments in vitro or in vivo."}, "[3]": {"details": "144 μg in 150 μl HBSS injected, no further treatment, two days later"}, "[4]": {"details": "144 μg injected, topical dibutyl phthalate and acetone 2 hrs later, two days later"}, "[5]": {"details": "20 μl of 0.5 mM in HBSS injected, dibutyl phthalate and acetone 2 hours later, two days later"}, "[6]": {"details": "immigrant Langerhans cells from inguinal lymph nodes 48 hrs after 4.8 μg SIINFEKL injected"}, "[7]": {"details": "240 μg in DMSO, ultrasound 20 kHz, acetone/dibutyl phthalate 2 hours later, nodes two days later"}, "[8]": {"details": "immigrant Langerhans cells from inguinal lymph nodes 48 hrs after 240 μg SIINFEKL by ultrasound"}}, "note": "“And” between values parts separate entries of the source, which are not always exact repeats. Equal entries are not always repeated."}
{"sequence": "SIINFEKL [eight amino acid peptide OVA257-264 of chicken ovalbumin, tumor-associated peptide antigen presented by K^b]", "values": [{"measurement": "Dendritic Cells per Lymph Node", "setting": "[1]; [3]", "result": "3,024"}, {"measurement": "K^b:SIINFEKL^+ DC per LymphNode", "setting": "[1]; [3]", "result": 504}, {"measurement": "Total Cells per Lymph Node", "setting": "[1]; [3]", "result": "6.3 × 10^6"}, {"measurement": "Dendritic Cells per Lymph Node", "setting": "[1]; [4]", "result": "55,912"}, {"measurement": "K^b:SIINFEKL^+ DC per LymphNode", "setting": "[1]; [4]", "result": "22,239"}, {"measurement": "Total Cells per Lymph Node", "setting": "[1]; 20 μl of 0.5 mM in HBSS injected at two sites in abdominal skin, dibutyl phthalate and acetone topically 2 hours later, two days later", "result": "1.1 × 10^7"}, {"measurement": "Dendritic Cells per Lymph Node", "setting": "[1]; [5]", "result": "162,628"}, {"measurement": "K^b:SIINFEKL^+ DC per LymphNode", "setting": "[1]; [5]", "result": "89,598"}, {"measurement": "Enhancement", "setting": "[1]; K^b:SIINFEKL+ DC versus HBSS injection", "result": 44, "unit": "×"}, {"measurement": "Enhancement", "setting": "[1]; SIINFEKL alone (reference)", "result": 1, "unit": "×"}, {"measurement": "increase in the total number of dendritic cells per lymph node", "setting": "[1]; SIINFEKL injection followed by topical migration/maturation inducer versus without", "result": 18.5, "unit": "fold"}, {"measurement": "increase in antigen-bearing dendritic cells per lymph node", "setting": "[1]; SIINFEKL injection with versus without migration/maturation inducer", "result": 44, "unit": "fold"}, {"measurement": "Median No. of Complexes/Cell", "setting": "[1]; [6]", "result": 860, "unit": "complexes/cell"}, {"measurement": "Median Specific Fl. Intensity", "setting": "[1]; [6]", "result": 43}, {"measurement": "increase in the number of antigen-bearing dendritic cells in the draining lymph nodes", "setting": "[1]; injection followed by topical induction of migration, two days later", "result": 44, "unit": "fold"}, {"measurement": "Median No. of Complexes/Cell", "setting": "E.G7-OVA cells", "result": "88 complexes/cell and 90 complexes/cell and 89^d complexes/cell"}, {"measurement": "protection against E.G7-OVA tumor", "setting": "E.G7-OVA tumor cells; SIINFEKL in acetone and dibutyl phthalate applied to the vaginal epithelium (FIG. 5)", "result": "protection against the tumor was induced"}, {"measurement": "established E.G7-OVA tumors", "setting": "E.G7-OVA tumor cells; SIINFEKL in undiluted DMSO on skin, dibutyl phthalate 50:50 acetone 5 hr later (FIG. 6)", "result": "diminished by 16 days post-inoculation"}, {"measurement": "E.G7-OVA tumor growth", "setting": "E.G7-OVA tumor cells; SIINFEKL in undiluted DMSO on skin, dibutyl phthalate 50:50 acetone 5 hr later, 5×10^5 cells s.c. (FIG. 6)", "result": "suppressed after 6 to 9 days"}, {"measurement": "inhibition of E.G7-OVA tumor cell growth", "setting": "E.G7-OVA tumor cells; cutaneous topical SIINFEKL 240 μg/ml in DMSO diluted in PBS then acetone and dibutyl phthalate, or in acetone and dibutyl phthalate, 5×10^5 cells s.c. (FIG. 4)", "result": "none of the treatment protocols were effective"}, {"measurement": "Dendritic Cells per Lymph Node", "setting": "[2]; [7]", "result": "51,968"}, {"measurement": "K^b:SIINFEKL^+ DC per LymphNode", "setting": "[2]; [7]", "result": "13,216"}, {"measurement": "Total Cells per Lymph Node", "setting": "[2]; [7]", "result": "5.6 × 10^6"}, {"measurement": "Enhancement", "setting": "[2]; K^b:SIINFEKL+ DC versus DMSO alone", "result": 5, "unit": "×"}, {"measurement": "Median No. of Complexes/Cell", "setting": "[2]; [8]", "result": 633, "unit": "complexes/cell"}, {"measurement": "Median Specific Fl. Intensity", "setting": "[2]; [8]", "result": 32}, {"measurement": "cells reactive with mAb 25-D1.16 relative to absence of SIINFEKL", "setting": "[2]; ultrasound-mediated topical exposure to SIINFEKL", "result": "five times"}]}
